Data from PMC3927586, “Protein kinase C-delta inactivation inhibits the proliferation and survival of cancer stem cells in culture and in vivo” (BMC Cancer, 2014).

Key:
Type in all cases: cell-based, human
PCSC cells = assay: Cytotoxicity (LDH release) in pancreatic cancer stem cells
Description: LDH release was assessed by spectrophotometrically measuring the oxidation of NADH in both the cells and media. Cells were seeded in 24-well plates, and exposed to PKCδ inhibitors or vehicle. After different times of exposure, cytotoxicity was quantified by a standard measurement of LDH release with the use of the LDH assay kit (Roche Molecular Biochemicals) according to the manufacturer’s protocol. Briefly, total culture medium was cleared by centrifugation. For assay of released LDH, supernatants were collected. To assess total LDH in cells, Triton X-100 was added to vehicle (control) wells to release intracellular LDH. LDH assay reagent was added to lysates or supernatants and incubated for up to 30 min at room temperature in dark, the reaction was stopped, and the absorbance was measured at 490 nm. The percentage of LDH release was then calculated as the LDH in the supernatants as a fraction of the total LDH.
Figure 2 Effects of PKCδ inhibitors on human cancer stem cells. (A) PCSC and PrCSC cells at 80% confluence were exposed to rottlerin. DMSO served as vehicle control (Vehicle). After 24 and 72 hr of exposure, cell mass was evaluated by MTT assay. Control values were normalized to 100%. p values for comparison between treatments reached significance at 24 hr of exposure (p≤0.01) for both cell types, and remained significant at 72 hr. (B) PCSC and PrCSC cells at 50% confluence were exposed to rottlerin. Cytotoxicity was evaluated by LDH-release assay. Total maximal LDH release was assigned the arbitrary value of 100% (Control). p values for comparison between effects of treatments on LDH release reached significance at 24 hr of exposure (p<0.01) for both cell types, and remained significant at 72 hr. (C) Effects of PKCδ inhibitor on tumor cell clonogenic capacity. PCSC were exposed to vehicle or rottlerin (10 μM) for 6, 18, 24, or 48 hr. Viable cells were enumerated and re-plated in media without inhibitor, and colony numbers were quantitated 15 days later. p values for comparison of treatment effects on clonogenic capacity reached significance (p=0.005) at 18 hr of exposure and remained significant for all subsequent exposure times. The insert is a photograph of stained colonies on plates. (D) Structures of staurosporine, rottlerin, second-generation (KAM1) and third-generation (BJE6-106) derivatives. (E) PCSC and PrCSC cells at 50% confluence were exposed to KAM1 at the indicated concentrations. DMSO served as vehicle control (Vehicle). Cytotoxicity was evaluated by LDH-release assay, as in panel B. p values for comparison between treatment effects on LDH release reached significance at 24 hr of exposure to 2.5 μM KAM1 for PCSC cells and at 10 μM for PrCSC (p≤0.01), and remained significant at 72 hr for all concentrations of KAM1. Error bars represent SEM.

PC3 = assay: Tumor spheroid growth, PC3 prostate cancer; conditions: p < 0.001
Hs578T cells = assay: Tumor spheroid formation, Hs578T; conditions: for effect on formation of spheroids, Hs578T: added to culture medium, 96 hr, p≤0.001
Description: Tumor self-renewing and anchorage-independent spheroids were obtained by culturing breast cancer cells MCF7, Hs587T and MDA231; melanoma cells SBcl2 and FM6; human breast cancer stem cells and pancreatic cancer stem cells in stem cell-selective conditions according to the manufacturer’s instructions (StemCell Technologies, Tukwila, WA). Briefly, cancer and cancer stem cells were propagated in 6-well ultra-low adherent plates (Corning) in Complete MammoCult Medium (Human) by adding 50 mL of MammoCult Proliferation Supplements to 450 mL of MammoCult Basal Medium (StemCell Technologies). The following were added to obtain Complete MammoCult Medium: 4 ug/mL Heparin (StemCell Technologies), 0.48 μg/mL hydrocortisone (StemCell Technologies), 200 U penicillin/ml; and 200 μg streptomycin/ml (Invitrogen).
Figure 4 Effects of PKCδ inhibitors on human tumor cell spheroid formation. (A) Hs578T and MCF7 were plated under adherent or non-adherent conditions. Tumor spheroids and adherent cells were collected at 96 hr, stained for CD24 and CD44, and analyzed by flow cytometry. (B) Hs578T, MCF7, breast cancer stem cells (BCSC) and pancreatic cancer stem cells (PCSC) were plated in tumor spheroid media, in the presence of rottlerin, BJE6-106, or DMSO (Control). Tumor spheroids were enumerated at 96 hr, and normalized to the number of spheroids in the control cultures (assigned an arbitrary value of 100%). p values for comparison between vehicle and rottlerin or BJE6-106 effects were significant (p≤0.001). Photographs are of representative areas of the culture plates. (C) MCF7 cells were exposed BJE6-106 or to rottlerin at the indicated concentrations. The corresponding equivalent volume of solvent (DMSO) was used as a vehicle control (Vehicle). After 24, 48 and 72 hr of exposure, cell mass was evaluated by MTT assay. Control values were normalized to 100%. p values for comparison between vehicle and rottlerin effects on cell number at 24 hr reached significance at 5 μM, and for BJE6-106 at 0.5 μM (p ≤ 0.02), and were significant for all concentrations tested at 48 and 72 hr time points. (D) Hs578T cells were exposed to vehicle or BJE6-106 (1 μM) for 6, 12, 24, 48 or 96 hr. Viable cells were enumerated and re-plated in media without BJE6-206, and spheroid numbers were quantitated 96 hr later. p values for comparison between vehicle and BJE6-106 effects on spheroid number were significant after 6 hr of exposure (p≤0.02), and remained significant at all time points thereafter. Error bars represent SEM.

SMILES | increase in potency compared to rottlerin, LDH release (PCSC cells; data not shown) | inhibition of tumor spheroid growth, PC3 (PC3; BJE6-106 at 0.5-1.0 μM) | exposure time for near maximum inhibition of spheroid formation (washout) (Hs578T cells; BJE6-106 at 1 μM, Hs578T) | exposure time that significantly repressed spheroid formation (washout) (Hs578T cells; BJE6-106 at 1 μM, Hs578T, spheroids counted 96 hr after re-plating) | effect on formation of spheroids, Hs578T (Hs578T cells) | cytotoxicity in PCSC (LDH release) (PCSC cells; dose-dependent, 24 and 72 hr) | inhibition at 10 µM (PC3; Homo sapiens, PC-3, rottlerin at 10 μM)
CC1(C)C=Cc2cc(CCn3c4ccccc4c4ccccc43)cc(C=O)c2O1 [BJE6-106, 6-(2-(9H-carbazol-9-yl)ethyl)-2,2-dimethyl-2H-chromene-8-carbaldehyde] | greater than 10 fold | > 96% | ≤ 24 h | 6 h | very efficiently inhibited | – | –
CC(=O)c1c(O)c(C)c(O)c(Cc2c(O)c3c(c(C(=O)/C=C/c4ccccc4)c2O)OC(C)(C)C=C3)c1O [rottlerin, Rottlerin, reference compound] | – | – | – | – | very efficiently inhibited | induced cytotoxicity | > 96%
